Where two headings read alike, the source gives them in different places.
How the values were obtained:
CFU-GM progenitor cells = conditions: 80 μg/kg s.c.; for % CHG, CFU-GM, agar culture / mean fold change compared to T 0, CFU-GM, agar culture, MEAN: all five donors
progenitor cells = conditions: mice, AMD3100 5 mg/Kg s.c. + MIP-1α 5 μg I.V., 11 hours after rhu G-CSF or saline, blood 1 hour later
Procedure: One hour later, the mice were sacrificed and the number of progenitor cells per mL of blood were measured.

[1] = system: unseparated and low density nucleated cells; conditions: 80 μg/kg s.c.

c1cc(CN2CCCNCCNCCCNCC2)ccc1CN1CCCNCCNCCCNCC1 [AMD3100, 1,1′-[1,4-phenylene-bis(methylene)]-bis-1,4,8,11-tetraazacyclotetradecane]
Absolute # of Progenitors per ML, CFU-GM, AGAR Culture (CFU-GM progenitor cells; P1, T = 1 h after injection): 710 per ML
fold change from T=0, CFU-GM, agar culture (CFU-GM progenitor cells; P1, T = 1 h after injection): 3.05 fold
Absolute # of Progenitors per ML, CFU-GM, AGAR Culture (CFU-GM progenitor cells; P1, T = 3 h after injection): 2070 per ML
fold change from T=0, CFU-GM, agar culture (CFU-GM progenitor cells; P1, T = 3 h after injection): 8.88 fold
Absolute # of Progenitors per ML, CFU-GM, AGAR Culture (CFU-GM progenitor cells; P1, T = 6 h after injection): 4142 per ML
fold change from T=0, CFU-GM, agar culture (CFU-GM progenitor cells; P1, T = 6 h after injection): 17.77 fold
Absolute # of Progenitors per ML, CFU-GM, AGAR Culture (CFU-GM progenitor cells; P2, T = 1 h after injection): 376 per ML
fold change from T=0, CFU-GM, agar culture (CFU-GM progenitor cells; P2, T = 1 h after injection): 3.74 fold
Absolute # of Progenitors per ML, CFU-GM, AGAR Culture (CFU-GM progenitor cells; P2, T = 3 h after injection): 953 per ML
fold change from T=0, CFU-GM, agar culture (CFU-GM progenitor cells; P2, T = 3 h after injection): 9.49 fold
Absolute # of Progenitors per ML, CFU-GM, AGAR Culture (CFU-GM progenitor cells; P2, T = 6 h after injection): 2409 per ML
fold change from T=0, CFU-GM, agar culture (CFU-GM progenitor cells; P2, T = 6 h after injection): 24.01 fold
Absolute # of Progenitors per ML, CFU-GM, AGAR Culture (CFU-GM progenitor cells; P2, T = 9 h after injection): 1032 per ML
fold change from T=0, CFU-GM, agar culture (CFU-GM progenitor cells; P2, T = 9 h after injection): 10.28 fold
Absolute # of Progenitors per ML, CFU-GM, AGAR Culture (CFU-GM progenitor cells; P2, T = 24 h after injection): 371 per ML
fold change from T=0, CFU-GM, agar culture (CFU-GM progenitor cells; P2, T = 24 h after injection): 3.69 fold
Absolute # of Progenitors per ML, CFU-GM, AGAR Culture (CFU-GM progenitor cells; P3, T = 1 h after injection): 234 per ML
fold change from T=0, CFU-GM, agar culture (CFU-GM progenitor cells; P3, T = 1 h after injection): 1.67 fold
Absolute # of Progenitors per ML, CFU-GM, AGAR Culture (CFU-GM progenitor cells; P3, T = 3 h after injection): 1049 per ML
fold change from T=0, CFU-GM, agar culture (CFU-GM progenitor cells; P3, T = 3 h after injection): 7.47 fold
Absolute # of Progenitors per ML, CFU-GM, AGAR Culture (CFU-GM progenitor cells; P3, T = 6 h after injection): 1972 per ML
fold change from T=0, CFU-GM, agar culture (CFU-GM progenitor cells; P3, T = 6 h after injection): 14.04 fold
Absolute # of Progenitors per ML, CFU-GM, AGAR Culture (CFU-GM progenitor cells; P3, T = 9 h after injection): 1085 per ML
fold change from T=0, CFU-GM, agar culture (CFU-GM progenitor cells; P3, T = 9 h after injection): 7.72 fold
Absolute # of Progenitors per ML, CFU-GM, AGAR Culture (CFU-GM progenitor cells; P3, T = 24 h after injection): 159 per ML
fold change from T=0, CFU-GM, agar culture (CFU-GM progenitor cells; P3, T = 24 h after injection): 1.13 fold
Absolute # of Progenitors per ML, CFU-GM, AGAR Culture (CFU-GM progenitor cells; P4, T = 1 h after injection): 336 per ML
fold change from T=0, CFU-GM, agar culture (CFU-GM progenitor cells; P4, T = 1 h after injection): 2.71 fold
Absolute # of Progenitors per ML, CFU-GM, AGAR Culture (CFU-GM progenitor cells; P4, T = 3 h after injection): 1299 per ML
fold change from T=0, CFU-GM, agar culture (CFU-GM progenitor cells; P4, T = 3 h after injection): 10.46 fold
Absolute # of Progenitors per ML, CFU-GM, AGAR Culture (CFU-GM progenitor cells; P4, T = 6 h after injection): 1623 per ML
fold change from T=0, CFU-GM, agar culture (CFU-GM progenitor cells; P4, T = 6 h after injection): 13.07 fold
Absolute # of Progenitors per ML, CFU-GM, AGAR Culture (CFU-GM progenitor cells; P4, T = 9 h after injection): 1268 per ML
fold change from T=0, CFU-GM, agar culture (CFU-GM progenitor cells; P4, T = 9 h after injection): 10.22 fold
Absolute # of Progenitors per ML, CFU-GM, AGAR Culture (CFU-GM progenitor cells; P4, T = 24 h after injection): 162 per ML
fold change from T=0, CFU-GM, agar culture (CFU-GM progenitor cells; P4, T = 24 h after injection): 1.30 fold
Absolute # of Progenitors per ML, CFU-GM, AGAR Culture (CFU-GM progenitor cells; P5, T = 1 h after injection): 298 per ML
Absolute # of Progenitors per ML, CFU-GM, AGAR Culture (CFU-GM progenitor cells; P5, T = 3 h after injection): 664 per ML
Absolute # of Progenitors per ML, CFU-GM, AGAR Culture (CFU-GM progenitor cells; P5, T = 6 h after injection): 2153 per ML
Absolute # of Progenitors per ML, CFU-GM, AGAR Culture (CFU-GM progenitor cells; P5, T = 9 h after injection): 1326 per ML
Absolute # of Progenitors per ML, CFU-GM, AGAR Culture (CFU-GM progenitor cells; P5, T = 24 h after injection): 229 per ML
fold change from T=0, CFU-GM, agar culture (CFU-GM progenitor cells; P6, T = 1 h after injection): 2.87 fold
fold change from T=0, CFU-GM, agar culture (CFU-GM progenitor cells; P6, T = 3 h after injection): 6.40 fold
fold change from T=0, CFU-GM, agar culture (CFU-GM progenitor cells; P6, T = 6 h after injection): 20.75 fold
fold change from T=0, CFU-GM, agar culture (CFU-GM progenitor cells; P6, T = 9 h after injection): 12.78 fold
fold change from T=0, CFU-GM, agar culture (CFU-GM progenitor cells; P6, T = 24 h after injection): 2.20 fold
% CHG, CFU-GM, agar culture (CFU-GM progenitor cells; T = 1 h after injection): 180.8%
mean fold change compared to T 0, CFU-GM, agar culture, MEAN (CFU-GM progenitor cells; T = 1 h after injection): 2.81 fold
% CHG, CFU-GM, agar culture (CFU-GM progenitor cells; T = 3 h after injection): 754.1%
mean fold change compared to T 0, CFU-GM, agar culture, MEAN (CFU-GM progenitor cells; T = 3 h after injection): 8.54 fold
% CHG, CFU-GM, agar culture (CFU-GM progenitor cells; T = 6 h after injection): 1692.8%
mean fold change compared to T 0, CFU-GM, agar culture, MEAN (CFU-GM progenitor cells; T = 6 h after injection): 17.93 fold
% CHG, CFU-GM, agar culture (CFU-GM progenitor cells; T = 9 h after injection): 924.9%
mean fold change compared to T 0, CFU-GM, agar culture, MEAN (CFU-GM progenitor cells; T = 9 h after injection): 10.25 fold
% CHG, CFU-GM, agar culture (CFU-GM progenitor cells; T = 24 h after injection): 108.3%
mean fold change compared to T 0, CFU-GM, agar culture, MEAN (CFU-GM progenitor cells; T = 24 h after injection): 2.08 fold
mobilization of progenitor cells in combination with mu MIP-1α (progenitor cells): additive to greater than additive
FOLD CHANGE COMPARED TO TIME = 0, nucleated cellularity PBL-LD ([1]; P1, T = 1 h after injection): 2.07 fold
FOLD CHANGE COMPARED TO TIME = 0, nucleated cellularity PBL-US ([1]; P1, T = 1 h after injection): 2.54 fold
FOLD CHANGE COMPARED TO TIME = 0, nucleated cellularity PBL-LD ([1]; P1, T = 3 h after injection): 2.83 fold
FOLD CHANGE COMPARED TO TIME = 0, nucleated cellularity PBL-US ([1]; P1, T = 3 h after injection): 3.55 fold
FOLD CHANGE COMPARED TO TIME = 0, nucleated cellularity PBL-LD ([1]; P1, T = 6 h after injection): 4.07 fold
FOLD CHANGE COMPARED TO TIME = 0, nucleated cellularity PBL-US ([1]; P1, T = 6 h after injection): 3.97 fold
FOLD CHANGE COMPARED TO TIME = 0, nucleated cellularity PBL-LD ([1]; P1, T = 9 h after injection): 3.65 fold
FOLD CHANGE COMPARED TO TIME = 0, nucleated cellularity PBL-US ([1]; P1, T = 9 h after injection): 3.27 fold
FOLD CHANGE COMPARED TO TIME = 0, nucleated cellularity PBL-LD ([1]; P1, T = 24 h after injection): 1.01 fold
FOLD CHANGE COMPARED TO TIME = 0, nucleated cellularity PBL-US ([1]; P1, T = 24 h after injection): 1.21 fold
FOLD CHANGE COMPARED TO TIME = 0, nucleated cellularity PBL-LD ([1]; P2, T = 1 h after injection): 1.99 fold
FOLD CHANGE COMPARED TO TIME = 0, nucleated cellularity PBL-US ([1]; P2, T = 1 h after injection): 1.38 fold
FOLD CHANGE COMPARED TO TIME = 0, nucleated cellularity PBL-LD ([1]; P2, T = 3 h after injection): 3.25 fold
FOLD CHANGE COMPARED TO TIME = 0, nucleated cellularity PBL-US ([1]; P2, T = 3 h after injection): 2.74 fold
FOLD CHANGE COMPARED TO TIME = 0, nucleated cellularity PBL-LD ([1]; P2, T = 6 h after injection): 3.90 fold
FOLD CHANGE COMPARED TO TIME = 0, nucleated cellularity PBL-US ([1]; P2, T = 6 h after injection): 2.94 fold
FOLD CHANGE COMPARED TO TIME = 0, nucleated cellularity PBL-LD ([1]; P2, T = 9 h after injection): 4.43 fold
FOLD CHANGE COMPARED TO TIME = 0, nucleated cellularity PBL-US ([1]; P2, T = 9 h after injection): 3.30 fold
FOLD CHANGE COMPARED TO TIME = 0, nucleated cellularity PBL-LD ([1]; P2, T = 24 h after injection): 1.71 fold
FOLD CHANGE COMPARED TO TIME = 0, nucleated cellularity PBL-US ([1]; P2, T = 24 h after injection): 1.43 fold
FOLD CHANGE COMPARED TO TIME = 0, nucleated cellularity PBL-LD ([1]; P3, T = 1 h after injection): 1.48 fold
